Assays:
Assay in all cases: relative viability (nuclei count vs DMSO), 5 days (fraction); higher = more cells survive
KN-93 + Foretinib = compound: CN(C/C=C/C1=CC=C(C=C1)Cl)CC2=CC=CC=C2N(CCO)S(=O)(=O)C3=CC=C(C=C3)OC [KN-93] + COc1cc2c(Oc3ccc(NC(=O)C4(C(=O)Nc5ccc(F)cc5)CC4)cc3F)ccnc2cc1OCCCN1CCOCC1 [Foretinib] (partner 0.25 µM)
Procedure, shortened: (§1)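 After 5 days of treatment, lung cancer cells in 1536-well plates were fixed and stained in a single step (final 0.05% Triton X-100, 1% formaldehyde, 1 ug/ml Hoechst) and their nuclei counted on 4× images. Treatment had been applied by pin tool the day after seeding as one drug alone or as a fixed anchor-drug dose with five library-drug doses (not always all listed) in √10 steps. Relative viability is the nuclei count of treated wells divided by that of vehicle wells, and values are medians of duplicate plates.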

KN-93 + Luminespib = compound: CN(C/C=C/C1=CC=C(C=C1)Cl)CC2=CC=CC=C2N(CCO)S(=O)(=O)C3=CC=C(C=C3)OC [KN-93] + CCNC(=O)c1noc(-c2cc(C(C)C)c(O)cc2O)c1-c1ccc(CN2CCOCC2)cc1 [Luminespib] (partner 0.01 µM)
Procedure, shortened: as §1

KN-93 + Vorinostat = compound: CN(C/C=C/C1=CC=C(C=C1)Cl)CC2=CC=CC=C2N(CCO)S(=O)(=O)C3=CC=C(C=C3)OC [KN-93] + O=C(CCCCCCC(=O)Nc1ccccc1)NO [Vorinostat] (partner 1 µM)
Procedure, shortened: as §1

KN-93 + Tozasertib = compound: CN(C/C=C/C1=CC=C(C=C1)Cl)CC2=CC=CC=C2N(CCO)S(=O)(=O)C3=CC=C(C=C3)OC [KN-93] + Cc1cc(Nc2cc(N3CCN(C)CC3)nc(Sc3ccc(NC(=O)C4CC4)cc3)n2)n[nH]1 [Tozasertib] (partner 0.1 µM)
Procedure, shortened: as §1

KN-93 + Bortezomib = compound: CN(C/C=C/C1=CC=C(C=C1)Cl)CC2=CC=CC=C2N(CCO)S(=O)(=O)C3=CC=C(C=C3)OC [KN-93] + CC(C)C[C@H](NC(=O)[C@H](Cc1ccccc1)NC(=O)c1cnccn1)B(O)O [Bortezomib] (partner 0.002 µM)
Procedure, shortened: as §1

| Cell Line | relative viability (KN-93 + Foretinib; first compound 0.08 µM) | relative viability (KN-93 + Foretinib; first compound 0.253 µM) | relative viability (KN-93 + Foretinib; first compound 2.53 µM) | relative viability (KN-93 + Foretinib; first compound 8 µM) | relative viability (KN-93 + Luminespib; first compound 0.08 µM) | relative viability (KN-93 + Luminespib; first compound 0.253 µM) | relative viability (KN-93 + Luminespib; first compound 2.53 µM) | relative viability (KN-93 + Luminespib; first compound 8 µM) | relative viability (KN-93 + Vorinostat; first compound 0.08 µM) | relative viability (KN-93 + Vorinostat; first compound 0.253 µM) | relative viability (KN-93 + Vorinostat; first compound 2.53 µM) | relative viability (KN-93 + Vorinostat; first compound 8 µM) | relative viability (KN-93 + Tozasertib; first compound 0.08 µM) | relative viability (KN-93 + Tozasertib; first compound 0.253 µM) | relative viability (KN-93 + Tozasertib; first compound 2.53 µM) | relative viability (KN-93 + Tozasertib; first compound 8 µM) | relative viability (KN-93 + Bortezomib; first compound 0.08 µM) | relative viability (KN-93 + Bortezomib; first compound 0.253 µM) | relative viability (KN-93 + Bortezomib; first compound 2.53 µM) | relative viability (KN-93 + Bortezomib; first compound 8 µM) |
| --- | --- | --- | --- | --- | --- | --- | --- | --- | --- | --- | --- | --- | --- | --- | --- | --- | --- | --- | --- | --- |
| NCI-H2009 | 1.2 | 1.37 | 1.29 | 0.914 | 1.05 | 1.11 | 1.08 | 0.746 | 0.716 | 0.679 | 0.637 | 0.447 | 0.689 | 0.764 | 0.692 | 0.493 | 1.05 | 0.995 | 0.84 | 0.462 |
| NCI-H2023 | 0.935 | – | 0.981 | 0.627 | 0.693 | 0.703 | 0.872 | 0.358 | 0.636 | 0.67 | 0.763 | 0.551 | 0.363 | 0.337 | 0.483 | 0.178 | 0.971 | 0.955 | 1.04 | 0.448 |
| NCI-H2085 | 1 | 0.994 | 1.05 | 0.664 | 0.441 | 0.371 | 0.441 | 0.356 | 0.791 | 0.747 | 0.747 | 0.578 | 0.667 | 0.662 | 0.873 | 0.369 | 0.909 | 1.12 | 1.16 | 0.663 |
| NCI-H2087 | 0.983 | 1.31 | 1.21 | 0.697 | 0.16 | 0.182 | 0.184 | 0.133 | 0.707 | 0.963 | 0.861 | 0.54 | 0.248 | 0.238 | 0.267 | 0.152 | 0.759 | 1.24 | 0.874 | 0.33 |
| NCI-H2126 | 1.14 | 0.899 | 1.23 | 1.11 | 1.03 | 0.984 | 0.941 | 0.708 | 0.782 | 0.83 | 0.727 | 0.704 | 0.858 | 0.805 | 0.862 | 0.554 | 1.07 | 1.08 | 1.19 | 1.09 |
| NCI-H2228 | 0.872 | 0.891 | 0.862 | 0.506 | 0.174 | 0.126 | 0.163 | 0.134 | 0.588 | 0.786 | 0.655 | 0.346 | 0.274 | 0.166 | 0.243 | 0.154 | 1.01 | 1.18 | 1.14 | 0.817 |
| NCI-H2347 | 1.12 | 0.656 | 1.25 | 0.593 | 0.618 | 0.728 | 0.458 | 0.511 | 0.513 | 0.623 | 0.674 | 0.458 | 0.587 | 0.55 | 0.618 | 0.505 | 1.27 | 0.741 | 0.828 | 0.745 |
